Assay: mn = molality of the nth substance listed, in mol/kg
Conditions: 101 kPa, Liquid; for speed of sound: Sing-around technique in a fixed-path interferometer; for mass density: Vibrating tube method

CCCC[N+](CCCC)(CCCC)CCCC.[Br-] [tetrabutylammonium bromide] + O
Conditions	mass density [kg/m3]	speed of sound [m/s]
293.15 K, m1 = 0.0015	998.245	1483.3
293.15 K, m1 = 0.0047	998.318	1484.1
293.15 K, m1 = 0.0061	998.352	1484.6
293.15 K, m1 = 0.013	998.509	1486.1
293.15 K, m1 = 0.0183	998.632	1487.7
293.15 K, m1 = 0.026	998.809	1489.5
293.15 K, m1 = 0.031	998.934	1490.9
293.15 K, m1 = 0.0492	999.359	1495.1
293.15 K, m1 = 0.0796	1000.08	1502.6
293.15 K, m1 = 0.0997	1000.55	1507.5
293.15 K, m1 = 0.1118	1000.85	1510.4
293.15 K, m1 = 0.1291	1001.26	1514.5
293.15 K, m1 = 0.1464	1001.68	1518.5
293.15 K, m1 = 0.1626	1002.06	1522.2
293.15 K, m1 = 0.1952	1002.85	1529.5
293.15 K, m1 = 0.2309	1003.71	1537.5
293.15 K, m1 = 0.2732	1004.73	1546.5
293.15 K, m1 = 0.3073	1005.55	1553.8
293.15 K, m1 = 0.3449	1006.43	1561.7
293.15 K, m1 = 0.5437	1011.1	1599.5
293.15 K, m1 = 0.7712	1016.12	1636
298.15 K, m1 = 0.0015	997.085	1497.3
298.15 K, m1 = 0.0047	997.156	1498.2
298.15 K, m1 = 0.0061	997.187	1498.6
298.15 K, m1 = 0.013	997.335	1500
298.15 K, m1 = 0.0183	997.458	1501.4
298.15 K, m1 = 0.026	997.626	1503.1
298.15 K, m1 = 0.031	997.744	1504.3
298.15 K, m1 = 0.0492	998.14	1508.4
298.15 K, m1 = 0.0796	998.844	1515.2
298.15 K, m1 = 0.0997	999.297	1519.7
298.15 K, m1 = 0.1118	999.574	1522.4
298.15 K, m1 = 0.1291	999.966	1526.2
298.15 K, m1 = 0.1464	1000.37	1529.9
298.15 K, m1 = 0.1626	1000.73	1533.3
298.15 K, m1 = 0.1952	1001.49	1540.1
298.15 K, m1 = 0.2309	1002.3	1547.3
298.15 K, m1 = 0.2732	1003.27	1555.7
298.15 K, m1 = 0.3073	1004.05	1562.3
298.15 K, m1 = 0.3449	1004.88	1569.5
298.15 K, m1 = 0.5437	1009.3	1603.7
298.15 K, m1 = 0.7712	1014.01	1636.3
303.15 K, m1 = 0.0015	995.686	1509.6
303.15 K, m1 = 0.0047	995.754	1510.3
303.15 K, m1 = 0.0061	995.785	1510.7
303.15 K, m1 = 0.013	995.926	1512.1
303.15 K, m1 = 0.0183	996.041	1513.3
303.15 K, m1 = 0.026	996.204	1514.9
303.15 K, m1 = 0.031	996.318	1516.1
303.15 K, m1 = 0.0492	996.704	1519.8
303.15 K, m1 = 0.0796	997.37	1526.2
303.15 K, m1 = 0.0997	997.802	1530.3
303.15 K, m1 = 0.1118	998.068	1532.8
303.15 K, m1 = 0.1291	998.443	1536.2
303.15 K, m1 = 0.1464	998.826	1539.7
303.15 K, m1 = 0.1626	999.177	1542.8
303.15 K, m1 = 0.1952	999.897	1548.9
303.15 K, m1 = 0.2309	1000.67	1555.6
303.15 K, m1 = 0.2732	1001.6	1563.3
303.15 K, m1 = 0.3073	1002.33	1569.3
303.15 K, m1 = 0.3449	1003.12	1575.8
303.15 K, m1 = 0.5437	1007.29	1606.7
303.15 K, m1 = 0.7712	1011.73	1635.7
308.15 K, m1 = 0.0015	994.069	1520.2
308.15 K, m1 = 0.0047	994.133	1520.9
308.15 K, m1 = 0.0061	994.141	1521.2
308.15 K, m1 = 0.013	994.299	1522.5
308.15 K, m1 = 0.0183	994.411	1523.7
308.15 K, m1 = 0.026	994.559	1525.1
308.15 K, m1 = 0.031	994.67	1526.1
308.15 K, m1 = 0.0492	995.05	1529.5
308.15 K, m1 = 0.0796	995.683	1535.4
308.15 K, m1 = 0.0997	996.092	1539.2
308.15 K, m1 = 0.1118	996.35	1541.5
308.15 K, m1 = 0.1291	996.709	1544.7
308.15 K, m1 = 0.1464	997.075	1547.8
308.15 K, m1 = 0.1626	997.408	1550.7
308.15 K, m1 = 0.1952	998.092	1556.3
308.15 K, m1 = 0.2309	998.837	1562.5
308.15 K, m1 = 0.2732	999.711	1569.5
308.15 K, m1 = 0.3073	1000.41	1574.9
308.15 K, m1 = 0.3449	1001.16	1580.8
308.15 K, m1 = 0.5437	1005.11	1608.6
308.15 K, m1 = 0.7712	1009.28	1634.4
313.15 K, m1 = 0.0015	992.252	1529.2
313.15 K, m1 = 0.0047	992.309	1529.9
313.15 K, m1 = 0.0061	992.322	1530.2
313.15 K, m1 = 0.013	992.471	1531.4
313.15 K, m1 = 0.0183	992.571	1532.4
313.15 K, m1 = 0.026	992.724	1533.8
313.15 K, m1 = 0.031	992.829	1534.7
313.15 K, m1 = 0.0492	993.186	1537.8
313.15 K, m1 = 0.0796	993.797	1543.2
313.15 K, m1 = 0.0997	994.191	1546.6
313.15 K, m1 = 0.1118	994.435	1548.8
313.15 K, m1 = 0.1291	994.777	1551.7
313.15 K, m1 = 0.1464	995.128	1554.6
313.15 K, m1 = 0.1626	995.446	1557.2
313.15 K, m1 = 0.1952	996.099	1562.3
313.15 K, m1 = 0.2309	996.807	1567.9
313.15 K, m1 = 0.2732	997.64	1574.3
313.15 K, m1 = 0.3073	998.309	1579.2
313.15 K, m1 = 0.3449	999.017	1584.5
313.15 K, m1 = 0.5437	1002.75	1609.5
313.15 K, m1 = 0.7712	1006.68	1632
318.15 K, m1 = 0.0015	990.25	1536.8
318.15 K, m1 = 0.0047	990.268	1537.4
318.15 K, m1 = 0.0061	990.285	1537.6
318.15 K, m1 = 0.013	990.457	1538.7
318.15 K, m1 = 0.0183	990.535	1539.7
318.15 K, m1 = 0.026	990.703	1540.9
318.15 K, m1 = 0.031	990.802	1541.8
318.15 K, m1 = 0.0492	991.142	1544.6
318.15 K, m1 = 0.0796	991.727	1549.6
318.15 K, m1 = 0.0997	992.105	1552.7
318.15 K, m1 = 0.1118	992.338	1554.6
318.15 K, m1 = 0.1291	992.665	1557.3
318.15 K, m1 = 0.1464	992.999	1559.9
318.15 K, m1 = 0.1626	993.303	1562.3
318.15 K, m1 = 0.1952	993.923	1567
318.15 K, m1 = 0.2309	994.602	1572
318.15 K, m1 = 0.2732	995.396	1577.8
318.15 K, m1 = 0.3073	996.027	1582.3
318.15 K, m1 = 0.3449	996.7	1587.1
318.15 K, m1 = 0.5437	1000.24	1609.2
318.15 K, m1 = 0.7712	1003.95	1629
